Laboratory results as given in US20260265235A1, “BICYCLOAMINE CARBOXAMIDE DERIVATIVE” (Sumitomo Pharma Co., Ltd., priority 2022, published 2026).

Target: T1, Human orexin receptor type 2 (Homo sapiens, UniProt O43614)
T1 construct: expressed in transfected cells; host or cells: CHO cells (transient expression, with apoaequorin)
T1 sequence (O43614 1-444): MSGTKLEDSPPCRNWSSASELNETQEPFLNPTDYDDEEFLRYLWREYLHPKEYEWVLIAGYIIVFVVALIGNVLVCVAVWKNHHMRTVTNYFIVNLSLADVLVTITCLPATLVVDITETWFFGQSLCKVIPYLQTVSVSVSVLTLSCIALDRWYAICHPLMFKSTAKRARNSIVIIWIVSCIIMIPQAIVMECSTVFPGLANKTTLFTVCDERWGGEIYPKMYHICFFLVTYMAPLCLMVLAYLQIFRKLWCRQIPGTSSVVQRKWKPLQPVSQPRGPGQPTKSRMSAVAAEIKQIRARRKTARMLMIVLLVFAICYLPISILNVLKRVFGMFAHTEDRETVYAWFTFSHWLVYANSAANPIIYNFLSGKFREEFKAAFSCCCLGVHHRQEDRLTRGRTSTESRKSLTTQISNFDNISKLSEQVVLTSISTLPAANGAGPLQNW
Assay: Test Example 1: agonist activity for orexin receptor type 2 (aequorin luminescence, intracellular calcium mobilization in CHO cells)
Assay type: cell-based
Conditions: compound 10 μM; relative percentage of luminescence for the luminescence (100%) of Orexin A (100 μM); CHO cells transiently expressing human orexin receptor type 2 and apoaequorin
Experimental: Test Example 1: Measurement of Agonist Activity for Orexin Receptor Type 2
Human orexin receptor type 2 and apoaequorin were transiently expressed in CHO cells, and the agonist activity was evaluated based on intracellular calcium mobilization with ligand stimulation. The CHO cells transiently-expressed human orexin receptor type 2 and apoaequorin were seeded on a 384-well plate by 2,000 cells/well, and then incubated for 16-22 hours. After the plate was returned to room temperature, Coelenterazine hcp (final concentration: 1 μM) was added to the plate, and the plate was allowed to stand at room temperature for 2 hours. And then, Orexin A or each test compound was added to the plate, and the luminescence of the cells was measured with FDSS7000 (Hamamatsu Photonics K.K.), wherein Orexin A and each test compound were dissolved in DMSO (final concentration: 0.1%), and diluted with a buffer (Hanks, 20 mM HEPES, 0.1% BSA). The agonist activity of each test compound for orexin receptor type 2 was calculated as relative percentage of luminescence for the luminescence (100%) of Orexin A (100 μM).
Each agonist activity of the compounds obtained in Examples (10 μM) for orexin receptor type 2 is shown in the table below as relative percentage of luminescence for the luminescence (100%) of Orexin A (100 μM).

SMILES | Agonist Activity (%)
CC(C)N1CCN([C@H]2CCCC(F)(F)[C@@H]2NC(=O)N2C[C@H]3C[C@@H](c4cccc(F)c4)C[C@H]3C2)CC1 [Example 16, (3aR,5R,6aS)—N-{(1R,6S)-2,2-difluoro-6-[4-(propan-2-yl)piperazin-1-yl]cyclohexyl}-5-(3-fluorophenyl)hexahydropenta[c]pyrrole-2(1H)-carboxamide] | 491%
CC(C)N1CCN([C@H]2CCCC(F)(F)[C@@H]2NC(=O)N2C[C@H]3C[C@H](c4noc(C5CC5)n4)C[C@H]3C2)CC1 [Example 1, (3aR,5S,6aS)-5-(5-Cyclopropyl-1,2,4-oxadiazol-3-yl)-N-{(1R,6S)-2,2-difluoro-6-[4-(propan-2-yl)piperazin-1-yl]cyclohexyl}hexahydropenta[c]pyrrole-2(1H)-carboxamide] | 375%
CC(C)N1CCN([C@H]2CCCC(F)(F)[C@@H]2NC(=O)N2C[C@@H]3[C@H](C2)[C@@H]3c2noc(C3CC3)n2)CC1 [Example 4, (1R,5S,6S)-6-(5-cyclopropyl-1,2,4-oxadiazol-3-yl)-N-{(1R,6S)-2,2-difluoro-6-[4-(propan-2-yl)piperazin-1-yl]cyclohexyl}-3-azabicyclo[3.1.0]hexane-3-carboxamide] | 15%
CC(C)N1CCN([C@H]2CCCC(F)(F)[C@@H]2NC(=O)N2C[C@H]3C[C@@H](c4ccccc4F)C[C@H]3C2)CC1 [Example 17, (3aR,5R,6aS)—N-{(1R,6S)-2,2-difluoro-6-[4-(propan-2-yl)piperazin-1-yl]cyclohexyl}-5-(2-fluorophenyl)hexahydropenta[c]pyrrole-2(1H)-carboxamide] | 315%
CC(C)N1CCN([C@H]2CCCC(F)(F)[C@@H]2NC(=O)N2CC[C@H]3C[C@H](c4noc(C5CC5)n4)[C@H]3C2)CC1 [Example 5] | 79%
CC(C)N1CCN([C@H]2CCCC(F)(F)[C@@H]2NC(=O)N2C[C@H]3CC(c4ccccc4)C[C@H]3C2)CC1 (stereo partly drawn) [Example 12, (3aR,5S,6aS)—N-{(1R,6S)-2,2-difluoro-6-[4-(propan-2-yl)piperazin-1-yl]cyclohexyl}-5-phenylhexahydropenta[c]pyrrole-2(1H)-carboxamide] | 492%
CC(C)N1CCN([C@H]2CCCC(F)(F)[C@@H]2NC(=O)N2C[C@@H]3[C@H](C2)[C@H]3c2noc(C3CC3)n2)CC1 [Example 3, (1R,5S,6R)-6-(5-cyclopropyl-1,2,4-oxadiazol-3-yl)-N-{(1R,6S)-2,2-difluoro-6-[4-(propan-2-yl)piperazin-1-yl]cyclohexyl}-3-azabicyclo[3.1.0]hexane-3-carboxamide] | 217%
CC(C)N1CCN([C@H]2CCCC(F)(F)[C@@H]2NC(=O)N2C[C@H]3C[C@@H](c4noc(C5CC5)n4)C[C@H]3C2)CC1 [Example 8, (3aR,5R,6aS)-5-(5-cyclopropyl-1,2,4-oxadiazol-3-yl)-N-{(1R,6S)-2,2-difluoro-6-[4-(propan-2-yl)piperazin-1-yl]cyclohexyl}hexahydropenta[c]pyrrole-2(1H)-carboxamide] | 423%
CC(C)N1CCN([C@H]2CCCC(F)(F)[C@@H]2NC(=O)N2C[C@H]3C[C@H](c4noc([C@@H]5C[C@@H]5F)n4)C[C@H]3C2)CC1 [Example 2, (3aR,5S,6aS)—N-{(1R,6S)-2,2-difluoro-6-[4-(propan-2-yl)piperazin-1-yl]cyclohexyl}-5-{5-[(1S,2S)-2-fluorocyclopropyl]-1,2,4-oxadiazol-3-yl}hexahydropenta[c]pyrrole-2(1H)-carboxamide] | 275%
CC(C)N1CCN([C@H]2CCCC(F)(F)[C@@H]2NC(=O)N2C[C@H]3C[C@@H](c4ccccc4)C[C@H]3C2)CC1 [Example 9, (3aR,5R,6aS)—N-{(1R,6S)-2,2-difluoro-6-[4-(propan-2-yl)piperazin-1-yl]cyclohexyl}-5-phenylhexahydropenta[c]pyrrole-2(1H)-carboxamide] | 424%
CC(C)N1CCN([C@H]2CCCC(F)(F)[C@@H]2NC(=O)N2C[C@H]3C[C@@H](c4ccc(F)cc4)C[C@H]3C2)CC1 [Example 15, (3aR,5R,6aS)—N-{(1R,6S)-2,2-difluoro-6-[4-(propan-2-yl)piperazin-1-yl]cyclohexyl}-5-(4-fluorophenyl)hexahydropenta[c]pyrrole-2(1H)-carboxamide] | 511%
CC(C)N1CCN([C@H]2CCCC(F)(F)[C@@H]2NC(=O)N2C[C@H]3CC(c4ccccc4)=C[C@H]3C2)CC1 [Example 10] | 450%
CC(C)N1CCN([C@H]2CCCC(F)(F)[C@@H]2NC(=O)N2C[C@@H]3CN(c4ccccc4)C[C@@H]3C2)CC1 [Example 11, (3aR,6aS)—N-{(1R,6S)-2,2-difluoro-6-[4-(propan-2-yl)piperazin-1-yl]cyclohexyl}-5-phenylhexahydropyrrolo[3,4-c]pyrrole-2(1H)-carboxamide] | 477%
CC(C)N1CCN([C@H]2CCCC(F)(F)[C@@H]2NC(=O)N2C[C@@H]3C[C@](C)(c4noc(C5CC5)n4)C[C@@H]3C2)CC1 [Example 6, (3aR,5R,6aS)-5-(5-cyclopropyl-1,2,4-oxadiazol-3-yl)-N-{(1R,6S)-2,2-difluoro-6-[4-(propan-2-yl)piperazin-1-yl]cyclohexyl}-5-methylhexahydropenta[c]pyrrole-2(1H)-carboxamide] | 282%
Cc1ccccc1[C@@H]1C[C@@H]2CN(C(=O)N[C@@H]3[C@@H](N4CCN(C(C)C)CC4)CCCC3(F)F)C[C@@H]2C1 [Example 14, (3aR,5R,6aS)—N-{(1R,6S)-2,2-difluoro-6-[4-(propan-2-yl)piperazin-1-yl]cyclohexyl}-5-(2-methylphenyl)hexahydropenta[c]pyrrole-2(1H)-carboxamide] | 446%
Cc1ccc([C@@H]2C[C@@H]3CN(C(=O)N[C@@H]4[C@@H](N5CCN(C(C)C)CC5)CCCC4(F)F)C[C@@H]3C2)cc1 [Example 13, (3aR,5R,6aS)—N-{(1R,6S)-2,2-difluoro-6-[4-(propan-2-yl)piperazin-1-yl]cyclohexyl}-5-(4-methylphenyl)hexahydropenta[c]pyrrole-2(1H)-carboxamide] | 466%
CC(C)N1CCN([C@H]2CCCC(F)(F)[C@@H]2NC(=O)N2C[C@@H]3C[C@](C)(c4noc([C@@H]5C[C@@H]5F)n4)C[C@@H]3C2)CC1 [Example 7, (3aR,5R,6aS)—N-{(1R,6S)-2,2-difluoro-6-[4-(propan-2-yl)piperazin-1-yl]cyclohexyl}-5-{5-[(1S,2S)-2-fluorocyclopropyl]-1,2,4-oxadiazol-3-yl}-5-methylhexahydropenta[c]pyrrole-2(1H)-carboxamide] | 328%
